Data as given in the supplement of paper PMC11208160.

Test: recombinant UMI read abundance after kanamycin selection (control-corrected) (log10(CPM+1)); higher = more efficient recombination; extreme values may be limits of the assay; sequences stand for … in AGTGCAGAGAAAATCGGCCAGTTTTCTCTGCCTGCAGTCCGCATGCCGTGGGACCCCTTGGGTTCTAACCTGTTGCCTAGATTTATGCAGCGGACTGCCTTTCTCCCAAAGTGATAAACCGG…AGGTTGGTTTCACT; site = the 11-nt donor
In short: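 In a pooled Escherichia coli screen for the IS621 bridge recombinase, donor and donor-binding-loop pairs were each placed with a 12-nt UMI on a plasmid bearing a promoterless kanamycin gene. This library was co-electroporated with a target plasmid encoding a fixed target and T7-inducible recombinase, and cells were plated either on IPTG (0.07 mM) plus kanamycin or without selection, in two replicates each. Recombinant UMIs were PCR-amplified across the donor–target junction and sequenced, and counts were converted to CPM, averaged over replicates, scaled by control-derived factors and reported as log10(CPM+1).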
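Note: IS621 bridge recombinase in Escherichia coli cells against a fixed T5 target plasmid.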

Sequence	recombinant UMI read abundance (log10)
GAATGGCCATGGACCGGTTTTCCCGGTAATCCGTATTTGGA (site GAATGGCCTTT)	0.0129
GAATGGCCATGGACCGGTTTTCCCGGTAATCCGTATTTGTA (site GAATGGCCTTA)	0.142
GAATGGCCATGGACCGGTTTTCCCGGTAATCCGTATTTGTA (site GAATGGCCTTC)	0.0097
GAATGGCCATGGACCGGTTTTCCCGGTAATCCGTATTTGTA (site GAATGGCCTTG)	0.00609
GAATGGCCATGGACCGGTTTTCCCGGTAATCCGTATTTGTA (site GAATGGCCTTT)	0.0207
GACAAACCATGGACCGGTTTTCCCGGTAATCCGTATTTGCT (site GACAAACCTAA)	0.00711
GACAAACCATGGACCGGTTTTCCCGGTAATCCGTATTTGCT (site GACAAACCTAC)	0
GACAAACCATGGACCGGTTTTCCCGGTAATCCGTATTTGCT (site GACAAACCTAG)	0
GACAAACCATGGACCGGTTTTCCCGGTAATCCGTATTTGCT (site GACAAACCTAT)	0
GACAAACCATGGACCGGTTTTCCCGGTAATCCGTATTTGGA (site GACAAACCTAC)	0.0269
GACAAACCATGGACCGGTTTTCCCGGTAATCCGTATTTGGA (site GACAAACCTCC)	0
GACAAACCATGGACCGGTTTTCCCGGTAATCCGTATTTGGA (site GACAAACCTGC)	0
GACAAACCATGGACCGGTTTTCCCGGTAATCCGTATTTGGA (site GACAAACCTTC)	0
GACAAACCATGGACCGGTTTTCCCGGTAATCCGTATTTGTT (site GACAAACCTAA)	0
GACAAACCATGGACCGGTTTTCCCGGTAATCCGTATTTGTT (site GACAAACCTAC)	0
GACAAACCATGGACCGGTTTTCCCGGTAATCCGTATTTGTT (site GACAAACCTAG)	0
GACAAACCATGGACCGGTTTTCCCGGTAATCCGTATTTGTT (site GACAAACCTAT)	0
GACACACCATGGACCGGTTTTCCCGGTAATCCGTATTTGGT (site GACAAACCTAC)	0
GACACACCATGGACCGGTTTTCCCGGTAATCCGTATTTGGT (site GACACACCTAC)	0.00264

Sequence	recombinant UMI read abundance (log10)
GACACACCATGGACCGGTTTTCCCGGTAATCCGTATTTGGT (site GACAGACCTAC)	0.00253
GACACACCATGGACCGGTTTTCCCGGTAATCCGTATTTGGT (site GACATACCTAC)	0.00315
GACCACCCATGGACCGGTTTTCCCGGTAATCCGTATTTGTT (site GACCACCCTAA)	0.0158
GACCACCCATGGACCGGTTTTCCCGGTAATCCGTATTTGTT (site GCCCACCCTAA)	0.0164
GACCACCCATGGACCGGTTTTCCCGGTAATCCGTATTTGTT (site GGCCACCCTAA)	0.00672
GACCACCCATGGACCGGTTTTCCCGGTAATCCGTATTTGTT (site GTCCACCCTAA)	0.0482
GACCCATCATGGACCGGTTTTCCCGGTAATCCGTATTTGCC (site GACCCATCTGG)	1.64
GACCCGACATGGACCGGTTTTCCCGGTAATCCGTATTTGGT (site GACCCGACTAC)	0.319
GACCCTACATGGACCGGTTTTCCCGGTAATCCGTATTTGAA (site GACCCTACTTT)	0.324
GACCGACCATGGACCGGTTTTCCCGGTAATCCGTATTTGCG (site GACCGACCTCG)	0.00858
GACCGTCCATGGACCGGTTTTCCCGGTAATCCGTATTTGAC (site GACCGTCCTGT)	0
GACCTATCATGGACCGGTTTTCCCGGTAATCCGTATTTGGA (site GACCTATCTTC)	0.981
GACCTTCCATGGACCGGTTTTCCCGGTAATCCGTATTTGGT (site GACCTTCCTAC)	0.0209
GACGCCGCATGGACCGGTTTTCCCGGTAATCCGTATTTGGT (site GACGCCGCTAC)	0.736
GACGTAACATGGACCGGTTTTCCCGGTAATCCGTATTTGGC (site GACGTAACTGC)	1.72
GACTAGCCATGGACCGGTTTTCCCGGTAATCCGTATTTGAA (site GACTAGCCTTT)	0.0158
GACTCATCATGGACCGGTTTTCCCGGTAATCCGTATTTGCC (site GACTCATCTGG)	2.65
GACTTGGCATGGACCGGTTTTCCCGGTAATCCGTATTTGAA (site GACTTGGCTTT)	0.93
GAGAAGCCATGGACCGGTTTTCCCGGTAATCCGTATTTGGG (site GAGAAGCCTCC)	0.0155

Sequence	recombinant UMI read abundance (log10)
GAGAAGCCATGGACCGGTTTTCCCGGTAATCCGTATTTGGG (site GCGAAGCCTCC)	0.0122
GAGAAGCCATGGACCGGTTTTCCCGGTAATCCGTATTTGGG (site GGGAAGCCTCC)	0
GAGAAGCCATGGACCGGTTTTCCCGGTAATCCGTATTTGGG (site GTGAAGCCTCC)	0.0251
GAGAATCCATGGACCGGTTTTCCCGGTAATCCGTATTTGTT (site CGGAATCCTAA)	0
GAGAATCCATGGACCGGTTTTCCCGGTAATCCGTATTTGTT (site GAGAATCCTAA)	0
GAGACGTCATGGACCGGTTTTCCCGGTAATCCGTATTTGCC (site GAGACGTCTGG)	2.04
GAGCACGCATGGACCGGTTTTCCCGGTAATCCGTATTTGGG (site AAGCACGCTCC)	0.0191
GAGCACGCATGGACCGGTTTTCCCGGTAATCCGTATTTGGG (site CAGCACGCTCC)	0.0292
GAGCACGCATGGACCGGTTTTCCCGGTAATCCGTATTTGGG (site GAGCACGCTCC)	0.468
GAGCACGCATGGACCGGTTTTCCCGGTAATCCGTATTTGGG (site TAGCACGCTCC)	0.517
GAGCACTCATGGACCGGTTTTCCCGGTAATCCGTATTTGCG (site GAGCACTCTCG)	3.08
GAGCCCACATGGACCGGTTTTCCCGGTAATCCGTATTTGAA (site GAGCCCACTTT)	1.73
GAGCCCTCATGGACCGGTTTTCCCGGTAATCCGTATTTGTC (site GAGCCCTCTGA)	3.73
GAGCCGACATGGACCGGTTTTCCCGGTAATCCGTATTTGGC (site GAGCCGACTGC)	0
GAGCGCACATGGACCGGTTTTCCCGGTAATCCGTATTTGAT (site GAGCACACTAT)	1.07
GAGCGCACATGGACCGGTTTTCCCGGTAATCCGTATTTGAT (site GAGCCCACTAT)	0.285
GAGCGCACATGGACCGGTTTTCCCGGTAATCCGTATTTGAT (site GAGCGCACTAT)	1.73
GAGCGCACATGGACCGGTTTTCCCGGTAATCCGTATTTGAT (site GAGCTCACTAT)	0.111
GAGCGTCCATGGACCGGTTTTCCCGGTAATCCGTATTTGGG (site GAGCGTCCTCC)	0.0151
